pIC50: −log10 of the molar value.
How the values were obtained:
[1] = Hoechst 33342 nuclear staining; assay type: cell-based; settings: for Hoechst 33342 nuclear staining score, H460: H460 cells; for Hoechst 33342 nuclear staining score, HeLa: HeLa cells; for Hoechst 33342 nuclear staining score, Jily: Jily cells; for Hoechst 33342 nuclear staining score, Jurkat: Jurkat cells; for Hoechst 33342 nuclear staining score, MRC5: MRC5 cells;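 for all read-outs here: apoptotic nuclei scored 0 none 1 weak under 50% of cells 2 strong over 50% of cells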
Summary of the method: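 After a further 30 min incubation, plates were inspected on a standard inverted fluorescence microscope. The fraction of apoptotic nuclei and other apoptosis-specific morphology were scored as 0 for no activity, 1 for weak activity in less than 50% of the cells, and 2 for strong activity in more than 50% of the cells.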

HeLa = test: MTS proliferation assay; assay type: cell-based, human; settings: 72 h
Summary of the method: (§1)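 Cells exposed 72 h under culture conditions to compound at 10, 3, 1 and 0.3 μM final, added in medium with max 5% DMSO. MTS reagent then added for a further 3 h and absorbance read at 492 nm.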

Jurkat = test: MTS proliferation assay; assay type: cell-based, human; settings: 72 h
Summary of the method: as §1

MRC5 = test: MTS proliferation assay; assay type: cell-based; settings: MRC5, 72 h
Summary of the method: as §1

Jily = test: MTS proliferation assay; assay type: cell-based; settings: 72 h
Summary of the method: as §1

Row | SMILES | Hoechst 33342 nuclear staining score, H460 ([1]; conc 0.1) | Hoechst 33342 nuclear staining score, H460 ([1]; conc 0.3) | Hoechst 33342 nuclear staining score, H460 ([1]; conc 1) | Hoechst 33342 nuclear staining score, H460 ([1]; conc 3) | Hoechst 33342 nuclear staining score, HeLa ([1]; conc 0.1) | Hoechst 33342 nuclear staining score, HeLa ([1]; conc 0.3) | Hoechst 33342 nuclear staining score, HeLa ([1]; conc 1) | Hoechst 33342 nuclear staining score, HeLa ([1]; conc 3) | Hoechst 33342 nuclear staining score, Jily ([1]; conc 0.1) | Hoechst 33342 nuclear staining score, Jily ([1]; conc 0.3) | Hoechst 33342 nuclear staining score, Jily ([1]; conc 1) | Hoechst 33342 nuclear staining score, Jily ([1]; conc 3) | Hoechst 33342 nuclear staining score, Jurkat ([1]; conc 0.1) | Hoechst 33342 nuclear staining score, Jurkat ([1]; conc 0.3) | Hoechst 33342 nuclear staining score, Jurkat ([1]; conc 1) | Hoechst 33342 nuclear staining score, Jurkat ([1]; conc 3) | Hoechst 33342 nuclear staining score, MRC5 ([1]; conc 0.1) | Hoechst 33342 nuclear staining score, MRC5 ([1]; conc 0.3) | Hoechst 33342 nuclear staining score, MRC5 ([1]; conc 1) | Hoechst 33342 nuclear staining score, MRC5 ([1]; conc 3) | further results
1 | COc1cc(-c2cc(-c3cccnc3)cn2S(=O)(=O)c2ccc3c(c2)CCO3)cc(OC)c1OC [Example 86] | 0 | 0 | 0 | 2 (strong activity comprising more than 50% of the cells) | 0 | 0 | 0 | 1 (weak activity comprising less than 50% of the cells) | 0 | 0 | 1 (weak activity comprising less than 50% of the cells) | 2 (strong activity comprising more than 50% of the cells) | 0 | 0 | 2 (strong activity comprising more than 50% of the cells) | 2 (strong activity comprising more than 50% of the cells) | 0 | 0 | 0 | 1 (weak activity comprising less than 50% of the cells) | Hoechst 33342 nuclear staining score, PBLs ([1]; conc 0.1): 0; Hoechst 33342 nuclear staining score, PBLs ([1]; conc 0.3): 0; Hoechst 33342 nuclear staining score, PBLs ([1]; conc 1): 0; Hoechst 33342 nuclear staining score, PBLs ([1]; conc 3): 0; pIC50 (HeLa): < 6.00; pIC50 (Jurkat): > 6.00; pIC50 (MRC5): < 6.00; pIC50 (Jily): > 6.00
2 | COc1cc(-c2cc(-c3cccnc3)cn2S(=O)(=O)c2cn(C)cn2)cc(OC)c1OC [Example 87] | 0 | 0 | 0 | 0 | 0 | 0 | 0 | 0 | 0 | 0 | 0 | 0 | 0 | 0 | 0 | 0 | 0 | 0 | 0 | 0 | Hoechst 33342 nuclear staining score, PBLs ([1]; conc 0.1): 0; Hoechst 33342 nuclear staining score, PBLs ([1]; conc 0.3): 0; Hoechst 33342 nuclear staining score, PBLs ([1]; conc 1): 0; Hoechst 33342 nuclear staining score, PBLs ([1]; conc 3): 0; pIC50 (HeLa): < 6.00; pIC50 (Jurkat): < 6.00; pIC50 (MRC5): < 6.00; pIC50 (Jily): < 6.00
3 | COc1cc(-c2cc(-c3cccnc3)cn2S(=O)(=O)Cc2ccccc2)cc(OC)c1OC [Example 88] | 0 | 0 | 0 | 0 | 0 | 0 | 0 | 0 | 0 | 0 | 0 | 0 | 0 | 0 | 0 | 0 | 0 | 0 | 0 | 0 | Hoechst 33342 nuclear staining score, PBLs ([1]; conc 0.1): 0; Hoechst 33342 nuclear staining score, PBLs ([1]; conc 0.3): 0; Hoechst 33342 nuclear staining score, PBLs ([1]; conc 1): 0; Hoechst 33342 nuclear staining score, PBLs ([1]; conc 3): 0; pIC50 (HeLa): < 6.00; pIC50 (Jurkat): < 6.00; pIC50 (MRC5): < 6.00; pIC50 (Jily): < 6.00

— patent US7612064B2, “Sulfopyrroles” (Takeda Pharmaceutical Company Limited, priority 2003, dated 2009)
